These results are taken from PMC12713470, “Design and Synthesis of Novel Chalcone Derivatives Targeting Bladder and Liver Cancer: Cytotoxicity Evaluation and Preliminary Mechanistic Studies” (ACS Omega, 2025).

The test system of test [1] is TOV-21G: human ovarian adenocarcinoma cells. Put plainly: MTT cytotoxicity assay on TOV-21G cells. It is filed as cell-based. Particulars: for IC50: Homo sapiens, TOV21G, MTT, 72 h incubation, n = 3, NA: noncytotoxic at the concentrations tested; for SI (TOV-21G): IC50 MRC-5/IC50 TOV-21G. As to the method:
(§1) Cytotoxicity was determined using the MTT colorimetric assay, and half-maximal inhibitory concentrations (IC50, μM) were obtained for all cell lines (Table ). The selectivity index (SI) was calculated as the ratio of IC50 MRC-5/IC50 cancer cell line. Doxorubicin was employed as a positive control due to its broad-spectrum clinical use, either alone or in combination, against hepatocellular, ovarian, cervical, and bladder cancers. −
(§2) In vitro biological assays were performed by using five human cell lines for cytotoxicity evaluation. HepG2 cells (ATCC HB-8065), derived from a human hepatocellular carcinoma of the liver (person), were cultured in Dulbecco’s modified Eagle medium (DMEM) supplemented with 5% fetal bovine serum (FBS), penicillin/streptomycin (100 IU/mL), and amphotericin B (5 μg/mL), in a humidified incubator with 5% CO2 at 37 °C. These cells were plated at a concentration of 2.0 × 10^4 cells/well in 96-well microplates. MRC-5 cells (ATCC CCL-171), derived from human lung fibroblasts of a […] fetus, were cultured under the same conditions and plated at 1.0 × 10^4 cells/well. T24 cells (ATCC HTB-4), established from a transitional cell carcinoma of the bladder (person), were also cultured under identical conditions and plated at a density of 1.0 × 10^4 cells/well. TOV-21G cells (ATCC CRL-11730), derived from a primary malignant ovarian adenocarcinoma (person), were maintained in DMEM with the same supplementation and environmental conditions and plated at 5.0 × 10^4 cells/well. […]
(§3) HeLa, HepG2, MRC-5, T24, and TOV-21G cells were suspended in a culture medium supplemented with 5% fetal bovine serum (FBS) and seeded into 96-well microplates. The plates were incubated under a humidified atmosphere containing 5% CO2 at 37 °C for 24 h, allowing for adherence and monolayer formation. , Eight serial dilutions of the test samples, previously solubilized in dimethyl sulfoxide (DMSO), were prepared in DMEM supplemented with 1% FBS, covering a concentration range from […], and the results were converted to […]. The volume of DMSO in each well was limited to a final concentration not exceeding 2%. Following monolayer formation, the culture medium was aspirated and replaced with 100 μL of the diluted test samples and 100 μL of DMEM containing 1% FBS. The plates were then incubated under the same atmospheric and temperature conditions.
(§4) Two hours prior to end point reading, 20 μL of MTT [3-(4,5-dimethylthiazol-2-yl)-2,5-diphenyltetrazolium bromide] solution (1.0 mg/mL in sterile phosphate-buffered saline, Sigma-Aldrich) was added to each well. The incubation period following sample addition varied according to the cell line: 24 h for MRC-5, 48 h for T24, and 72 h for HeLa, HepG2, and TOV-21G. After the appropriate incubation, absorbance was measured by using a VICTOR X3 microplate reader (PerkinElmer), and data were processed with WorkOut 2.5 software at a wavelength of 490 nm. Formazan formation, resulting from the MTT reduction by metabolically active cells, was used as an indirect measure of cell viability. The percentage of cytotoxicity was calculated using the equation % cytotoxicity = [(A – B)/A] × 100, where A is the optical density (OD4 9 0) of untreated control cells and B is the OD4 9 0 of treated cells.
(§5) Cytotoxicity was expressed as the 50% cytotoxic concentration (CC5 0), representing the concentration of sample required to reduce cell viability by 50% relative to that of the untreated control.
On the technique in general: Tetrazolium assays rely on reduction of a dye to a coloured formazan, in cell work by metabolically active cells.

Test [2] concerns HepG2: human liver hepatocellular carcinoma cells. Put plainly: MTT cytotoxicity assay on HepG2 cells. The test is classed as cell-based. Particulars: for IC50: Homo sapiens, HepG2, MTT, 72 h incubation, n = 3, NA: noncytotoxic at the concentrations tested; for SI (HepG2): IC50 MRC-5/IC50 HepG2. As to the method: as §1, §2, §3, §4, §5
Test [3] relates to MRC-5: human lung fibroblast cells. Description: MTT cytotoxicity assay on MRC-5 cells. The test is classed as cell-based. The following applies: MRC5, 24 h incubation, n = 3, ± standard deviation. As to the method:
as §1, §2, §3, §4, §5

The test system of test [4] is HeLa: human cervical adenocarcinoma cells. Description: MTT cytotoxicity assay on HeLa cells. The test is classed as cell-based. Particulars: for IC50: Homo sapiens, HeLa, MTT, 72 h incubation, n = 3, NA: noncytotoxic at the concentrations tested; for SI (HeLa): IC50 MRC-5/IC50 HeLa. As to the method:
as §1, §2, §3, §4, §5

The test system of test [5] is T24: human urinary bladder carcinoma cells. Put plainly: MTT cytotoxicity assay on T24 cells. The test is classed as cell-based. The following applies: for IC50: Homo sapiens, T-24, MTT, 48 h incubation, n = 3, NA: noncytotoxic at the concentrations tested; for SI (T24): IC50 MRC-5/IC50 T24. The method, then: as §1, §2, §3, §4, §5
Test [6] has as its system human hepatocellular carcinoma (HCC) cells. Further details: method as in Tsai and colleagues. The following applies: subtoxic concentrations (5–20 μM); ref Tsai and colleagues; cited from earlier work.

With `CCCc1cc(/C=C/C(=O)c2ccc(C)cc2)c(OC(C)=O)c(OC)c1` [compound 2, (E)-2-Methoxy-6-(3-oxo-3-(p-toluyl)-prop-1-en-1-yl)-4-propylphenyl Acetate], in test [1], the IC50 – broadly, the midpoint of a concentration-inhibition curve – worked out at 1.2 ± 1.1 µM and the “SI (TOV-21G)” value is listed as 13.3. Also, in test [1] (ratio of IC50 values, 1 vs 2), the “activity against TOV-21G relative to hit 1” value is “over six times more active”. Moreover, in test [2], the IC50 turned out to be 4.2 ± 1.2 µM and the “SI (HepG2)” value is given as 3.8. For the same compound, the IC50 in test [3] was 16.1 ± 1.5 µM. In test [4], the IC50 worked out at 3.6 ± 1.3 µM and the “SI (HeLa)” value was determined as 4.7. For the same compound, in test [5], the IC50 was found to be 59.5 ± 1.5 µM and the “SI (T24)” value stood at 0.2.

As to `CCCc1cc(/C=C/C(=O)c2ccc(C)cc2)c(OCc2ccccc2)c(OC)c1` [compound 4, (E)-3-(2-(Benzyloxy)-3-methoxy-5-propylphenyl)-1-(p-toluyl)-prop-2-en-1-one], the IC50 in test [2] came out at 16.9 ± 1.3 µM; in test [3], 242.4 ± 2.4 µM. Besides, in test [2], the “SI (HepG2)” value was 14.3.

Regarding `COc1cc([N+](=O)[O-])cc(/C=C/C(=O)c2ccc(C)cc2)c1O` [compound 7, (E)-3-(2-Hydroxy-3-methoxy-5-nitrophenyl)-1-(p-tolyl)-prop-2-en-1-one], in test [1], the IC50 is 23.8 ± 2.8 µM and the “SI (TOV-21G)” value is reported as 1.1. In test [2], the IC50 is 16.6 ± 1.5 µM and the “SI (HepG2)” value is reported as 1.6. Further, in test [3], the IC50 amounted to 28.1 ± 1.3 µM. Further, in test [4], the IC50 amounted to 26.6 ± 1.8 µM and the “SI (HeLa)” value came to 1.0. In test [5], the IC50 worked out at 104 ± 1.9 µM and the “SI (T24)” value is on record as 0.2.

For the compound `COc1cc(N)cc(/C=C/C(=O)c2ccc(C)cc2)c1O` [compound 8, (E)-3-(5-Amino-2-hydroxy-3-methoxyphenyl)-1-(p-tolyl)-prop-2-en-1-one], in test [1], the IC50 turned out to be 53.1 ± 2.6 µM and the “SI (TOV-21G)” value came out at 0.7. Besides, the IC50 in test [3] came out at 40.9 ± 2 µM. Moreover, in test [4], the IC50 stood at 11.5 ± 1.8 µM and the “SI (HeLa)” value is 3.5. In test [5], the IC50 came to 158.6 ± 1.4 µM and the “SI (T24)” value is on record as 0.2.

For the compound `CCCc1cc(/C=C/C(=O)c2ccc(O)cc2)c(O)c(OC)c1` [compound 10, (E)-3-(2-Hydroxy-3-methoxy-5-propylphenyl)-1-(4-hydroxyphenyl)-prop-2-en-1-one], the IC50 in test [1] came out at 7.2 ± 1.2 µM; in test [2], 18.9 ± 1.6 µM; in test [3], 5 ± 1.3 µM; in test [4], 17.9 ± 2 µM; in test [5], 34.9 ± 1.4 µM. Moreover, in test [1], the “SI (TOV-21G)” value is reported as 0.7. In addition, the “SI (HepG2)” value in test [2] stood at 0.2. Besides, in test [4], the “SI (HeLa)” value is given as 0.2. Also, the “SI (T24)” value in test [5] turned out to be 0.1.

For `CCCc1cc(/C=C/C(=O)c2ccccc2)c(O)c(OC)c1` [compound 11, (E)-3-(2-Hydroxy-3-methoxy-5-propylphenyl)-1-phenylprop-2-en-1-one], in test [1], the IC50 was found to be 11.9 ± 1.5 µM and the “SI (TOV-21G)” value amounted to 0.9. Further, in test [2], the IC50 was 4.6 ± 1.2 µM and the “SI (HepG2)” value is 2.3. Moreover, the IC50 in test [3] was found to be 11 ± 1.2 µM. In test [4], the IC50 came out at 2.1 ± 1.1 µM and the “SI (HeLa)” value is reported as 5.2. In test [5], the IC50 is 9.2 ± 1.2 µM and the “SI (T24)” value is given as 1.2.

Consider `CCCc1cc(/C=C/C(=O)c2ccc(C(=O)/C=C/c3cc(CCC)cc(OC)c3O)cc2)c(O)c(OC)c1` [compound 12, (2E,2′E)-1,1′-(1,4-Phenylene)-bis(3-(2-hydroxy-3-methoxy-5-propylphenyl)-prop-2-en-1-one)], for which, in test [1], the IC50 was 33.7 ± 2.4 µM and the “SI (TOV-21G)” value was 1.0. Besides, in test [3], the IC50 was 35 ± 1.5 µM. In test [4], the IC50 came to 20.4 ± 1.5 µM and the “SI (HeLa)” value was 1.7. In test [5], the IC50 is 10.4 ± 1.7 µM and the “SI (T24)” value is 3.3.

Take `CCCc1cc(OC)c(O)c(C(=O)/C=C/c2ccccc2)c1` [compound 15, (E)-1-(2-Hydroxy-3-methoxy-5-propylphenyl)-3-phenylprop-2-en-1-one]: in test [1], the IC50 was found to be 5.4 ± 1.2 µM and the “SI (TOV-21G)” value amounted to 3.3. For the same compound, in test [2], the IC50 worked out at 16.1 ± 1.2 µM and the “SI (HepG2)” value is recorded as 1.1. Moreover, the IC50 in test [3] is 18.4 ± 1.9 µM. Further, in test [4], the IC50 was found to be 13.7 ± 1.5 µM and the “SI (HeLa)” value is 1.3. Moreover, in test [5], the IC50 came to 18.4 ± 1.9 µM and the “SI (T24)” value amounted to 1.

Turning to `CCCc1cc(OC)c(O)c(C(=O)/C=C/c2ccc(C)cc2)c1` [compound 16, (E)-1-(2-Hydroxy-3-methoxy-5-propylphenyl)-3-(p-tolyl)-prop-2-en-1-one], the IC50 in test [1] was found to be 10.9 ± 1.5 µM; in test [2], 6.6 ± 1.4 µM; in test [3], 7.7 ± 1.5 µM; in test [4] it was 12.8 ± 1.3 µM; in test [5] it was 17.1 ± 2.1 µM. Moreover, in test [1], the “SI (TOV-21G)” value came to 0.7. The “SI (HepG2)” value in test [2] is reported as 1.1. The “SI (HeLa)” value in test [4] was determined as 0.6. For the same compound, in test [5], the “SI (T24)” value came to 0.4.

Consider `CCCc1cc(OC)c(O)c(C(=O)/C=C/c2ccc(O)cc2)c1` [compound 17, (E)-1-(2-Hydroxy-3-methoxy-5-propylphenyl)-3-(4-hydroxyphenyl)-prop-2-en-1-one], for which, in test [1], the IC50 amounted to 39 ± 1.5 µM and the “SI (TOV-21G)” value is given as 0.3. Besides, in test [2], the IC50 came out at 19.4 ± 1.4 µM and the “SI (HepG2)” value is 0.6. In test [3], the IC50 is 12.7 ± 1.4 µM. Further, in test [4], the IC50 stood at 114 ± 2.1 µM and the “SI (HeLa)” value stood at 0.1. Besides, in test [5], the IC50 turned out to be 36.4 ± 1.5 µM and the “SI (T24)” value is on record as 0.3.

For `CCCc1cc(OC)c(O)c(C(=O)/C=C/c2ccc(F)cc2)c1` [compound 18, (E)-3-(4-Fluorophenyl)-1-(2-hydroxy-3-methoxy-5-propylphenyl)-prop-2-en-1-one], in test [1], the IC50 came to 4.8 ± 1.4 µM and the “SI (TOV-21G)” value was determined as 2.3. Also, in test [2], the IC50 came to 8.3 ± 1.2 µM and the “SI (HepG2)” value came to 1.3. In addition, the IC50 in test [3] turned out to be 11.5 ± 1.2 µM. Moreover, in test [4], the IC50 was determined as 4.1 ± 1.3 µM and the “SI (HeLa)” value is recorded as 2.8. In test [5], the IC50 amounted to 15.4 ± 1.5 µM and the “SI (T24)” value worked out at 0.7.

As for `COc1cccc2c1C(=O)c1c(O)c3c(c(O)c1C2=O)C[C@@](O)(C(=O)CO)C[C@@H]3O[C@H]1C[C@H](N)[C@H](O)[C@H](C)O1` [doxorubicin, reference compound], the IC50 in test [1] stood at 0.5 µM; in test [2], 0.06 µM; in test [3] it was 0.6 ± 1.2 µM; in test [4], 2.9 ± 1.1 µM; in test [5], 4.4 ± 1.3 µM. Moreover, the “SI (TOV-21G)” value in test [1] was found to be 1.3. Further, the “SI (HeLa)” value in test [4] was 0.2. Moreover, the “SI (T24)” value in test [5] was found to be 0.1.

Consider `C=CC(C)(C)c1cc(/C=C/C(=O)c2ccc(O)cc2)c(OC)cc1O` [licochalcone A], for which the “migration and invasion of human hepatocellular carcinoma (HCC) cells” value in test [6] was “effectively inhibited migration and invasion”.
